Measurements: ChEMBL document CHEMBL1154730, “Novel quinolines and pyrimido[4,5-b]quinolines bearing biologically active sulfonamide moiety as a new class of antitumor agents” (Eur J Med Chem, 2010)
Values after ≈ are worked out from the molar mass of the structure shown.

Experiments:
[1] = Cytotoxicity against mouse EAC cells assessed as non-viable cells at 100 ug/ml after 2 hrs by trypan blue exclusion; format: functional, Ehrlich
[2] = Cytotoxicity against mouse EAC cells assessed as non-viable cells at 50 ug/ml after 2 hrs by trypan blue exclusion; format: functional, Ehrlich
[3] = Cytotoxicity against mouse EAC cells assessed as non-viable cells at 25 ug/ml after 2 hrs by trypan blue exclusion; format: functional, Ehrlich
[4] = Cytotoxicity against mouse EAC cells assessed as non-viable cells at 10 ug/ml after 2 hrs by trypan blue exclusion; format: functional, Ehrlich
[5] = Cytotoxicity against mouse EAC cells after 2 hrs by trypan blue exclusion; format: functional, cell-based; conditions: ehrlich

| SMILES | Activity [1] [%] | Activity [2] [%] | Activity [3] [%] | Activity [4] [%] | IC50 [5] [mg/L] |
| --- | --- | --- | --- | --- | --- |
| Nc1nc(=S)[nH]c2c1C(c1ccc(Cl)cc1Cl)C1=C(CCCC1=O)N2c1ccc(S(N)(=O)=O)cc1 (stereo not given) | 100 | 100 | 50 | 30 | 25 (≈ 45.6 µM) |
| N#CC1=C(NC(=S)Nc2ccccc2)N(c2ccc(S(N)(=O)=O)cc2)C2=C(C(=O)CCC2)C1c1ccc(Cl)cc1Cl (stereo not given) | 95 | 55 | 50 | 40 | 25 (≈ 40 µM) |
| N#CC1=C(NC(=S)Nc2ccc(Cl)cc2)N(c2ccc(S(N)(=O)=O)cc2)C2=C(C(=O)CCC2)C1c1ccc(Cl)cc1Cl (stereo not given) | 100 | 100 | 60 | 30 | 40 (≈ 60.7 µM) |
| N=c1c2c([nH]c(=S)n1-c1ccccc1)N(c1ccc(S(N)(=O)=O)cc1)C1=C(C(=O)CCC1)C2c1ccc(Cl)cc1Cl (stereo not given) | 60 | 50 | 30 | 10 | 50 (≈ 80.1 µM) |
| N=c1c2c([nH]c(=S)n1-c1ccc(Br)cc1)N(c1ccc(S(N)(=O)=O)cc1)C1=C(C(=O)CCC1)C2c1ccc(Cl)cc1Cl (stereo not given) | 70 | 50 | 30 | 30 | 50 (≈ 71.1 µM) |
| NS(=O)(=O)c1ccc(N2C3=C(C(=O)CCC3)C(c3ccc(Cl)cc3Cl)c3c2[nH]c(=S)[nH]c3=S)cc1 (stereo not given) | 57 | 39 | 30 | 11 | > 100 |
| N#CC1=C(NC(=O)CCC(=O)O)N(c2ccc(S(N)(=O)=O)cc2)C2=C(C(=O)CCC2)C1c1ccc(Cl)cc1Cl (stereo not given) | 60 | 50 | 35 | 20 | 50 (≈ 84.8 µM) |
| CCCCNC(=S)NC1=C(C#N)C(c2ccc(Cl)cc2Cl)C2=C(CCCC2=O)N1c1ccc(S(N)(=O)=O)cc1 (stereo not given) | 40 | 35 | 30 | 30 | > 100 |
| Nc1nc(=O)[nH]c2c1C(c1ccc(Cl)cc1Cl)C1=C(CCCC1=O)N2c1ccc(S(N)(=O)=O)cc1 (stereo not given) | 100 | 90 | 80 | 80 | 6.9 (≈ 13 µM) |
| C=CCn1c(=S)[nH]c2c(c1=N)C(c1ccc(Cl)cc1Cl)C1=C(CCCC1=O)N2c1ccc(S(N)(=O)=O)cc1 (stereo not given) | 75 | 50 | 40 | 30 | 50 (≈ 85 µM) |
| C=CCNC(=S)NC1=C(C#N)C(c2ccc(Cl)cc2Cl)C2=C(CCCC2=O)N1c1ccc(S(N)(=O)=O)cc1 (stereo not given) | 40 | 33 | 30 | 10 | > 100 |
| CCCCn1c(=S)[nH]c2c(c1=N)C(c1ccc(Cl)cc1Cl)C1=C(CCCC1=O)N2c1ccc(S(N)(=O)=O)cc1 (stereo not given) | 80 | 80 | 70 | 70 | 7 (≈ 11.6 µM) |
| N#CC1=C(N)N(c2ccc(S(N)(=O)=O)cc2)C2=C(C(=O)CCC2)C1c1ccc(Cl)cc1Cl (stereo not given) | 95 | 65 | 50 | 40 | 25 (≈ 51.1 µM) |
| N#CC1=C(N2C(=O)CCC2=O)N(c2ccc(S(N)(=O)=O)cc2)C2=C(C(=O)CCC2)C1c1ccc(Cl)cc1Cl (stereo not given) | 90 | 70 | 50 | 20 | 25 (≈ 43.7 µM) |
| N#CC1=C(NC(N)=O)N(c2ccc(S(N)(=O)=O)cc2)C2=C(C(=O)CCC2)C1c1ccc(Cl)cc1Cl (stereo not given) | 60 | 40 | 35 | 20 | 75 (≈ 141 µM) |
| N#CC1=C(NC(=S)Nc2ccc(Br)cc2)N(c2ccc(S(N)(=O)=O)cc2)C2=C(C(=O)CCC2)C1c1ccc(Cl)cc1Cl (stereo not given) | 90 | 90 | 50 | 50 | 25 (≈ 35.5 µM) |
| N#CC1=C(NS(=O)(=O)c2ccc([N+](=O)[O-])cc2)N(c2ccc(S(N)(=O)=O)cc2)C2=C(C(=O)CCC2)C1c1ccc(Cl)cc1Cl (stereo not given) | 90 | 85 | 85 | 50 | 20 (≈ 29.6 µM) |
| N#CC1=C(NS(=O)(=O)c2ccc(Br)cc2)N(c2ccc(S(N)(=O)=O)cc2)C2=C(C(=O)CCC2)C1c1ccc(Cl)cc1Cl (stereo not given) | 100 | 90 | 90 | 90 | 5.5 (≈ 7.76 µM) |
| N=c1c2c([nH]c(=S)n1-c1ccc(Cl)cc1)N(c1ccc(S(N)(=O)=O)cc1)C1=C(C(=O)CCC1)C2c1ccc(Cl)cc1Cl (stereo not given) | 95 | 90 | 60 | 50 | 10 (≈ 15.2 µM) |
| COc1cccc2c1C(=O)c1c(O)c3c(c(O)c1C2=O)C[C@@](O)(C(=O)CO)C[C@@H]3O[C@H]1C[C@H](N)[C@H](O)[C@H](C)O1 [DOXORUBICIN] | 100 | 68 | 32 | 19 | 38 (≈ 69.9 µM) |
